Data reported in US20240287019A1, “T-TYPE CALCIUM CHANNEL BLOCKER” (KINKI UNIVERSITY, priority 2021, published 2024).
Blank lines part the entries; values can stand above or below the molecule they belong to.

Tests used:
[1] = tested on: mouse Na2S intraplantar injection pain models; test: Mouse Na2S intraplantar injection pain model (von Frey pain threshold); type: in vivo, mice; conditions: for Pain Threshold: mean ± standard error
Protocol: In this test, the analgesic effect of the present compound was studied using mouse Na2S intraplantar injection pain models. Compound 5 was used as the present compound, and saline comprising 1% DMSO and 5% Tween 80 was used as vehicle.
Male ICR mice were received the intraplantar injection of 10 μmol/paw/10 μL of Na2S and T-type calcium channel-dependent pain was induced to prepare mouse Na2S intraplantar injection pain models. The mice were randomly divided into the vehicle+vehicle administration group (control group), vehicle+Na2S administration group, compound 5 (1 mg/kg)+Na2S administration group, compound 5 (3 mg/kg)+Na2S administration group and compound 5 (10 mg/kg)+Na2S administration group (n=7 to 11). Vehicle (V, 10 mL/kg) or 1, 3 or 10 mg/kg of compound 5 was intraperitoneally administered 30 minutes before Na2S was injected intraplantarlly in the hind paws of the mice.
Pain thresholds were measured every 15 minutes until 60 minutes after the administration of Na2S by the von Frey method to evaluate the analgesic effect of the present compound.

[2] = tested on: male ddY mice; test: Catalepsy-inducing effect (bar test) after administration in the lateral ventricle; type: in vivo; conditions: 8 nmol in the lateral ventricle; 30-180 minutes after administration; result in words
Excerpt: In this test, the catalepsy-inducing effect of the present compound was studied to evaluate whether the present compound can inhibit side effects caused by the dopamine D2 receptor blockade. Compound 5 and compound 12 were used as the present compound and 2% DMSO solution was used as vehicle. Also, pimozide was used as the control drug.
16 male ddY mice were randomly divided into compound 5 administration group, compound 12 administration group, pimozide administration group and vehicle administration group (4 mice per group). The mice in each group were received the administration of 8 nmol (0.8 mM/10 μL) of compound 5, compound 12 and pimozide, and 10 μL of vehicle in the lateral ventricle. both forepaws of the mice were forced to place themselves on a horizontal iron bar (Height: 5 cm) and the time of keeping the posture (catalepsy) was measured to evaluate the presence or absence of catalepsy. The measurement was terminated when the forepaws touched the floor or when the mouse was on the bar.

[3] = target: T1, human Cav3.2 T-type calcium channels (Homo sapiens, UniProt O95180); test: Whole-cell patch clamp, T channel current in HEK 293 cells forcibly expressing human Cav3.2; type: cell-based; conditions: perfusion addition method; from percentage change in T-channel current before and after addition; n=3 to 17
T1 construct: expressed in transfected cells; host or cells: HEK 293 cells
T1 sequence (O95180 whole entry, the tested form may be a part): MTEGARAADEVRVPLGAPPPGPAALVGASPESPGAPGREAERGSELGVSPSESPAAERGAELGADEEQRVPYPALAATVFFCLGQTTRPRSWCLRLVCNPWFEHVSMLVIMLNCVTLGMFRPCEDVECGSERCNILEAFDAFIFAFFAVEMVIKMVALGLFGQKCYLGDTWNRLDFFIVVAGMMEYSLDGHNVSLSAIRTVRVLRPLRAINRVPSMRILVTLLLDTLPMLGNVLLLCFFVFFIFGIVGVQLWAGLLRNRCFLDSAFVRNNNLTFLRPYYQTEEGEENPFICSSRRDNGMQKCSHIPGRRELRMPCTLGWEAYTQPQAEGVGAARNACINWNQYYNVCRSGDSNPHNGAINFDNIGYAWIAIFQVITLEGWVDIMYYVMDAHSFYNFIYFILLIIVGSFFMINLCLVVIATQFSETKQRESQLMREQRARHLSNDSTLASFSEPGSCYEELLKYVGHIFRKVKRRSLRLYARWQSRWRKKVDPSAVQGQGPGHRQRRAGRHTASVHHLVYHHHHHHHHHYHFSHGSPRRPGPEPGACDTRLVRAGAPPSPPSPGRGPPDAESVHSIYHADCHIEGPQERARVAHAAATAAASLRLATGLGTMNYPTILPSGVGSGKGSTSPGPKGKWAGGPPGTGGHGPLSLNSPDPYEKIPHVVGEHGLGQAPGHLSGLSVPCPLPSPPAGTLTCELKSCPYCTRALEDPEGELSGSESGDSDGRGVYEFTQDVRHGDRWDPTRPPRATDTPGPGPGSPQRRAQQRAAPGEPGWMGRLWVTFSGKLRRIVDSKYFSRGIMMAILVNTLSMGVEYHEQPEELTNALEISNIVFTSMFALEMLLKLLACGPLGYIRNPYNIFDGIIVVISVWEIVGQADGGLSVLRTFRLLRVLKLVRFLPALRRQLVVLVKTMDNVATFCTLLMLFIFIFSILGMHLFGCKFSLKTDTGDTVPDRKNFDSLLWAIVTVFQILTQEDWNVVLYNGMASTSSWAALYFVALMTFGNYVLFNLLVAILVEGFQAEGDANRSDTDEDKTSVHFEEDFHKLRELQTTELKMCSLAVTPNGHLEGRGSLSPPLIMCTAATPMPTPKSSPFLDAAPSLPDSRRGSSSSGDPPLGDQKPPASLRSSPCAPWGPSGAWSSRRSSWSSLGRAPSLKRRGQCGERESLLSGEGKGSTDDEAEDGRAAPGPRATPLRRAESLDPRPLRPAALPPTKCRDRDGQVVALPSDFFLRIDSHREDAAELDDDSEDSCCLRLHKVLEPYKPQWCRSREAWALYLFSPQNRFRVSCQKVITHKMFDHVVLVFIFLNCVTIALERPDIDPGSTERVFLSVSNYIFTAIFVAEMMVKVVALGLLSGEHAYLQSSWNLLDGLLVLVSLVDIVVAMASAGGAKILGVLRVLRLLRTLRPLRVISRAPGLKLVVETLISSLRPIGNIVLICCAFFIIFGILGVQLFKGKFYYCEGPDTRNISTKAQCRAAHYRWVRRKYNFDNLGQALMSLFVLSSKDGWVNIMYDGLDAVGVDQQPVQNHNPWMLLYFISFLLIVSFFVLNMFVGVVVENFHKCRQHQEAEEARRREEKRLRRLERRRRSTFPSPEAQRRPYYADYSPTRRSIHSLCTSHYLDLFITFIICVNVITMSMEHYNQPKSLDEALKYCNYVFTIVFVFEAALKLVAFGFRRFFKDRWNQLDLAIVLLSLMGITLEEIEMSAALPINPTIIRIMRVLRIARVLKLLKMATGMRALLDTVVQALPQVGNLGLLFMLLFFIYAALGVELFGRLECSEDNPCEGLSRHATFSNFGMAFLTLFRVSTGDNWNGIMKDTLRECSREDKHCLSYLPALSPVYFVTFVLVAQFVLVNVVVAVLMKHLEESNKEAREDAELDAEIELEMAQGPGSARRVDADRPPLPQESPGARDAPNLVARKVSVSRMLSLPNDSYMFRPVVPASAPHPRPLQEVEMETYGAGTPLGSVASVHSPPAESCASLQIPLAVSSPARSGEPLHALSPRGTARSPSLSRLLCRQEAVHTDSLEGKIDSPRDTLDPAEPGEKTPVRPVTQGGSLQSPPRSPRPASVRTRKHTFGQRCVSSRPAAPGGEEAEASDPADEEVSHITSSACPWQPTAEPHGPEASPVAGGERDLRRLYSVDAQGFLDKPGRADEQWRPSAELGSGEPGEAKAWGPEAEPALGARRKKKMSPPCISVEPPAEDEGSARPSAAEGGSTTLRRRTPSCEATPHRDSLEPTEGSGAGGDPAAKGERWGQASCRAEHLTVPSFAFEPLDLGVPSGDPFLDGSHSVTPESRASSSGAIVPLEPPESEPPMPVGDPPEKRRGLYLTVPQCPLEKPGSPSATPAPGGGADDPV
Protocol: The effect of the compound of the present invention on human Cav3.2 T-type calcium channels was evaluated by whole-cell patch clamp method. As a control (vehicle), DMSO solution was used.
Human kidney cell-derived cell line, HEK 293 cells, in which human Cav3.2 T-type calcium channels were forcibly expressed, were seeded into cell culture dishes using DMEM medium containing 10% fetal bovine serum and cultured at 37° C. under 5% CO2 conditions. In the whole-cell patch clamp method, the following solutions were used as extracellular and intracellular solutions, the holding potential is set at −80 mV, and the barium current flowing as an inward current in a potential jump from −80 mV to −20 mV was measured with a patch clamp amplifier and AD converter (Axon Instruments). In order to eliminate the influence of high-threshold activated calcium channels, the value obtained by subtracting the current at 150 ms after the start of stimulation from the peak current was used for data analysis as the T channel current (T-current). The data analysis was performed using pClamp8 (Axon Instruments).
As for test compounds, each compound dissolved in extracellular solution was added directly to the dishes (direct addition method) or added to the dishes by perfusion (perfusion addition method).
According to a similar method to the perfusion addition method of Test Example 1, the effect of each compound of the present invention on human Cav3.2 T-type channels was evaluated. As the test compounds, pimozide at each concentration of 0.01 μM, 0.1 μM, 0.3 μM, 1.0 μM and 3.0 μM, compound 5, compound 14 and compound 15 were used and the test compounds were added by perfusion.

[4] = tested on: mouse Na2S intrabuccal injection pruritus models; test: Mouse Na2S intrabuccal injection pruritus model (scratching bouts and wipes); type: in vivo, mice
Protocol: In this test, the antipruritic and analgesic effects of the present compound was studied using mouse Na2S intrabuccal injection pruritus models. Compound 5 was used as the present invention and saline comprising 1% DMSO and 5% Tween 80 was used as vehicle.
Male ICR mice were received the intrabuccal injection of 3.8 μmol (300 μg/10 μL) of Na2S and T-type calcium channel-[…] pain was induced to prepare mouse Na2S intrabuccal injection pruritus models. 18 mice were randomly divided into vehicle+saline administration group (control group), vehicle+Na2S administration group and compound 5 (10 mg/kg)+Na2S administration group (6 mice per group). The mice in each group were anesthetized with isoflurane and their right cheek hairs were shaved the day or a few days before the experiment. On the day of the experiment, the mice were placed in an acrylic observation cage with mirrors on all four sides and allowed to acclimate the environment for at least 30 minutes. After the acclimatization, Na2S was intradermally administered to the shaved cheeks of the mice without anesthesia, and their subsequent behavior was recorded on video. Compound 5 (10 mg/kg) or vehicle (V, 10 mL/kg) was intraperitoneally administered 30 minutes before Na2S was administered. At the later date, the video was replayed and the number of occurrences of the scratching bouts by the hind paws to the administration site (as pruritus response) and the wipes (wiping) by the forepaws (as pain response) was counted for 60 minutes to evaluate the antipruritic and analgesic effects of the present compound.

[5] = tested on: mouse intrabuccal injection pruritus models (chloroquine); test: Mouse intrabuccal injection pruritus model, chloroquine as pruritogen; type: in vivo, mice; conditions: for Scratching bouts (counts/60 minutes) (n): mean ± standard error (n); for inhibition of the histamine-independent scratching bouts: 10 mg/kg, chloroquine, result in words
Protocol: (§1) In this test, the antipruritic effect of the present compound was studied using mouse intrabuccal injection pruritus models in which histamine or chloroquine is intra-buccally administered as a pruritogen. Compound 5 and compound 38 were used as the present compound, and saline comprising 1% DMSO and 5% Tween 80 was used as control. Compound 5 and compound 38 were dissolved into saline comprising 1% DMSO and 5% Tween 80 to adjust the concentration of each compound. Also, male ICR mice with a body weight of 23 to 40 g were used as experimental animals and the animals were freely given tap water and solid feed and was kept under 12-hour light/dark cycle at room temperature of about 24° C.
According to the method in Shimada SG & LaMotte R H (2008) Behavioral differentiation between itch and pain in mouse. Pain 139 (3): 681-687, histamine or chloroquine, which is a pruritogen, was dissolved into saline and the solution was administered into the buccal skin of each male ICR mouse and pruritus was induced to prepare mouse intrabuccal injection pruritus models. The mice were randomly divided into saline comprising 1% DMSO and 5% Tween 80 (Solvent 1)+saline (Solvent 2) administration group (control group), Solvent 1+histamine administration group, compound 5 (10 mg/kg)+histamine administration group, Solvent 1+chloroquine administration group, compound 5 (10 mg/kg)+chloroquine administration group, compound 38 (1 mg/kg)+chloroquine administration group, compound 38 (3 mg/kg)+chloroquine administration group and compound 38 (10 mg/kg)+chloroquine administration group (n=6 to 10). The mice in each group were anesthetized with isoflurane and their right cheek hairs were shaved a few days before the experiment. On the day of the experiment, the mice were placed in an acrylic observation cage (10×14×30 cm) with mirrors on all four sides and allowed to acclimate the environment for at least 30 minutes. After the acclimatization, saline in a volume of 10 μL/site, histamine in a volume of 300 μL/site or chloroquine in a volume of 100 μL/site was intradermally administered to the shaved cheeks of the mice without anesthesia, and their subsequent behavior was recorded on video for 60 minutes. Compound 5 (10 mg/kg), compound 38 (1 mg/kg, 3 mg/kg or 10 mg/kg) or Solvent 1 (10 mL/kg) was intraperitoneally administered 30 minutes before saline or the pruritogen was administered. At the later date, the video was replayed and the number of occurrences of the scratching bouts by the hind paws to the administration site (as pruritus response) was counted for 60 minutes to evaluate the antipruritic effect of the present compound.
The test results are shown in Table 5 to Table 7 and FIG. 8 to FIG. 10. Table 5 and FIG. 8 show the mean value±standard error (the total (n)) of the total counts of the scratching bouts by the hind paws to the administration site for 60 minutes after the administration in control group, Solvent 1+histamine administration group and compound 5 (10 mg/kg)+histamine administration group and the graph thereof, and Table 6 and FIG. 9 show the mean value±standard error (the total (n)) of the total counts of the scratching bouts by the hind paws to the administration site for 60 minutes after the intrabuccal administration on the right side in control group, Solvent 1+chloroquine administration group, compound 5(10 mg/kg)+chloroquine administration group and the graph thereof, and Table 7 and FIG. 10 show the mean value±standard error (the total (n)) of the total counts of the scratching bouts by the hind paws to the administration site for 60 minutes after the intrabuccal administration on the right side in control group, Solvent 1+chloroquine administration group, compound 38 (1 mg/kg)+chloroquine administration group, compound 38 (3 mg/kg)+chloroquine administration group and compound 38 (10 mg/kg)+chloroquine administration group and the graph thereof.

[6] = tested on: mouse intrabuccal injection pruritus models (histamine); test: Mouse intrabuccal injection pruritus model, histamine as pruritogen; type: in vivo, mice
Protocol: as §1
According to the method in Shimada SG & LaMotte R H (2008) Behavioral differentiation between itch and pain in mouse. […] After the acclimatization, saline in a volume of 10 μL/site, histamine in a volume of 300 μL/site or chloroquine in a volume of 100 μL/site was intradermally administered to the shaved cheeks of the mice without anesthesia, and their subsequent behavior was recorded on video for 60 minutes. […] At the later date, the video was replayed and the number of occurrences of the scratching bouts by the hind paws to the administration site (as pruritus response) was counted for 60 minutes to evaluate the antipruritic effect of the present compound. […]

[7] = 10 mg/kg i.p. + Na2S, result in words
[8] = 10 mg/kg intraperitoneally 30 minutes before Na2S, mean ± standard error, 6 mice

Structure (SMILES): O=c1n(CCCCc2ccccc2)c2ccccc2n1C1CCN(CCCCc2ccccc2)CC1 [Compound 5, 1-(4-phenylbutyl)-3-(1-(4-phenylbutyl)piperidin-4-yl)-1H-benzo[d]imidazol-2(3H)-one]
Pain Threshold ([1]; 1 mg/kg i.p. + Na2S, 15 minutes after administration): 0.317 ± 0.082 g
Pain Threshold ([1]; 1 mg/kg i.p. + Na2S, 30 minutes after administration): 0.296 ± 0.078 g
Pain Threshold ([1]; 3 mg/kg i.p. + Na2S, 15 minutes after administration): 0.347 ± 0.079 g
Pain Threshold ([1]; 3 mg/kg i.p. + Na2S, 30 minutes after administration): 0.417 ± 0.064 g
Pain Threshold ([1]; 10 mg/kg i.p. + Na2S, 15 minutes after administration): 0.514 ± 0.054 g
Pain Threshold ([1]; 10 mg/kg i.p. + Na2S, 30 minutes after administration): 0.604 ± 0.049 g
inhibition of pain ([1]; compound 5 administration group + Na2S, result in words): pain was inhibited
catalepsy (keeping time of posture) [2]: catalepsy was induced
IC50 [3]: 461 nM
inhibition of pain [4, 7]: significantly inhibited
inhibition of pruritus [4, 7]: significantly inhibited
Scratching bouts (counts/60 minutes) [4, 8]: 36.2 ± 9.5 counts/60 minutes
Wipes (counts/60 minutes) [4, 8]: 30.7 ± 4.0 counts/60 minutes
Scratching bouts (counts/60 minutes) (n) ([5]; 10 mg/kg i.p. 30 minutes before chloroquine, Table 6): 24.9 ± 5.5 (10) counts/60 minutes
inhibition of the histamine-independent scratching bouts [5]: strongly inhibited
Scratching bouts (counts/60 minutes) (n) ([6]; 10 mg/kg i.p. 30 minutes before histamine, mean ± standard error (n)): 13.3 ± 5.0 (7) counts/60 minutes
inhibition of the histamine-dependent scratching bouts ([6]; 10 mg/kg, result in words): strongly inhibited

Structure (SMILES): O=c1n(CCCCc2ccccc2)c2ccccc2n1C1CCN(CCCc2ccccc2)CC1 [Compound 14, 1-(4-Phenylbutyl)-3-(1-(3-phenylpropyl)piperidin-4-yl)-1H-benzo[d]imidazol-2(3H)-one]
IC50 [3]: 337 nM

IC50 [3]: 153 nM
Structure (SMILES): O=C(CCCc1ccccc1)N1CCC(n2c(=O)n(CCCCc3ccccc3)c3ccccc32)CC1 [Compound 15, 1-(1-(4-Phenylbutanoyl)piperidin-4-yl)-3-(4-phenylbutyl)-1H-benzo[d]imidazol-2(3H)-one]

Structure (SMILES): O=c1n(CCCCc2cccc(F)c2)c2ccccc2n1C1CCN(CCCCc2cccc(F)c2)CC1 [Compound 38, 1-(4-(3-Fluorophenyl)butyl)-3-(1-(4-(3-fluorophenyl)butyl)piperidin-4-yl)-1H-benzo[d]imidazol-2(3H)-one]
Scratching bouts (counts/60 minutes) (n) ([5]; 1 mg/kg i.p. 30 minutes before chloroquine, Table 7): 73.0 ± 10.5 (6) counts/60 minutes
Scratching bouts (counts/60 minutes) (n) ([5]; 3 mg/kg i.p. 30 minutes before chloroquine, Table 7): 50.7 ± 9.7 (6) counts/60 minutes
Scratching bouts (counts/60 minutes) (n) ([5]; 10 mg/kg i.p. 30 minutes before chloroquine, Table 7): 28.8 ± 10.5 (8) counts/60 minutes
inhibition of the histamine-independent scratching bouts [5]: strongly inhibited

Structure (SMILES): O=c1[nH]c2ccccc2n1C1CCN(CCCC(c2ccc(F)cc2)c2ccc(F)cc2)CC1 [Pimozide, 1-{1-[4,4-Bis(4-fluorophenyl)butyl]piperidin-4-yl}-1,3-dihydro-2H-benzimidazol-2-one, reference compound]
IC50 [3]: 157 nM
